Source: patent US20020103111A1, “Inhibitors of MAdCAM-1-mediated interactions and methods of use therefor” (Millennium Pharmaceuticals, Inc., priority 1996, published 2002)
Ends that are not written are not given here.

Biological target: T1, murine MAdCAM-1 (MAdCAM-1/mCk fusion protein); α4β7-bearing HUT 78 cells (Homo sapiens, UniProt P13612+P26010)
T1 construct: host or cells: HUT 78 cells (endogenous α4β7); The MAdCAM-1/mCk partner was made in house in baculovirus-infected Sf9 insect cells, used as neat supernatant and captured by rat anti-mCk antibody
Test: Adhesion of HUT 78 cells to MAdCAM-1/mCk fusion protein bound via capture antibody
Type: cell-based
Details: 500 μM compound; HUT 78 cells, Mn2+ activated
Protocol: The compounds of the present invention were evaluated for their biological properties.
A soluble fusion protein comprising murine MAdCAM-1 was produced in a baculovirus expression system and used in the adhesion assay. A fusion gene in which sequences encoding the signal peptide and extracellular domain of murine MAdCAM-1 were fused to sequences encoding a constant region of the murine kappa light chain (mCk) was constructed, and cloned into a baculovirus shuttle vector. Fusion protein produced from the resulting construct contained the integrin binding sequences of murine MAdCAM-1 at the amino-terminus, and the mCk sequence at the carboxy-terminus. Recombinant baculovirus encoding the fusion protein was harvested from infected Sf9 insect cells.
Human T-cell lymphoma cells (HUT 78 cells) activated with Mn^+2 were used for the adhesion assay in a 96-well format. HUT 78 cells were labelled by preincubation with ECECF-AM stain (Molecular Probes). Assays were conducted in a final volume of 200 μl. The adhesion of HUT 78 cells to MAdCAM-1/mCk fusion protein bound to wells via rat anti-mCk capture antibody was assessed in the presence or absence of each compound. […] Percent inhibition and IC50 values were determined.
HUT 78 cells (a human T cell lymphoma line; American Type Culture Collection, Accession No. ATCC TIB 161) were maintained in culture for up to one month in RPMI 1640 supplemented with 10% FCS, 20 mM HEPES, and Pen-Strep (1:100). Just prior to use in adhesion assays, cells were labeled with BCECF-AM as follows: 1×10^7 cells were pelleted at 1000 rpm for 10 minutes and resuspended in 25 mL cold PBS (Phosphate Buffered Saline). The cells were pelleted again, resuspended in cold PBS, and pelleted again. The cell pellet was resuspended in 25 ml PBS and labeled with 50 μl BCECF-AM (1 μg/μL in DMSO) for 30 minutes at 37° C. (BCECF-AM; 2′,7′-bis-(2-carboxyethyl)-5-(and-6)-carboxyflourescein, acetoxymethyl ester). The labeled cells were pelleted at 700 rpm for 10 minutes, resuspended in 25 ml cold Assay Buffer and pelleted.
The assay was performed in a 96-well format. Plates were coated overnight at 4° C. with 53 μl/well of a 5 μg/mL solution of rat anti-mCk in carbonate buffer. The plates were blocked for 1 hour at 37° C. with 100 μL/well of 1% BSA in PBS. The BSA/PBS solution was removed, and 50 μL of MAdCAM-mCk supernatant was added neat to each well. The assay was conducted under conditions in which capture antibody was the limiting reagent.
Cell adhesion was measured in the presence or absence of compounds. The compounds were resuspended in 100% DMSO, subsequently diluted 1:10 in water, and finally diluted again 1:10 in the assay: 50 μL of 2X Assay Bufler, 30 μL water, 20 μL of compound were added to each well. […] Cell adhesion occurred in 30 minutes at ambient temperature, after which plates were washed with 50 mM Tris/2 mM MnCl2, pH 7.2 using an EL 404 Microplate Autowasher (BIO-TEK Instruments) using the following wash parameters: wash volume=500 μL; two wash cycles; wash depth=80; aspirating after each wash.
Additional determinations were conducted as needed, so that each IC50 was determined over a range which encompassed the IC50. Over this range, Four different concentrations were tested in duplicate.
For each compound, a ratio was determined as follows: An average of the readings from duplicate wells was divided by an average of eight control wells (adhesion in the absence of any compound). […] In addition, the concentration (μM) of compound used was plotted against the resulting ratios.
The IC50 was then determined using Kaleidograph software (Abelbeck Software). The complete procedure was repeated again using duplicate wells for each point.

In the case of “NH2-Trp-Arg-Gly-Leu-Asp-Thr-Ser-Leu-Gly-Ser (H-WRGLDTSLGS; not fully specified (C-terminus); printed as NH2-Trp-Arg-Gly-Leu-Asp-Thr-Ser-Leu-Gly-Ser) [Example 55]”, the “% Adhesion Inhibition 500 μM” value is reported as 76%.

Biological target: T2, human MAdCAM-1 (huMAdCAM-1-Ig chimera); RPMI 8866 cells expressing α4β7 (Homo sapiens, UniProt P13612+P26010)
T2 construct: RPMI 8866 cells, a B cell lymphoma expressing α4β7; endogenous in cells; host or cells: RPMI 8866 cells (endogenous α4β7)
Test: huMAdCAM-1-Ig/RPMI 8866 Adhesion Assay
Type: cell-based
Details: Table 6, R1-Leu-Asp-Thr, read-out: hMAdCAM IC50
Protocol: RPMI 8866 cells, a B cell lymphoma expressing α4β7 (a gift from D. Erle; Erle, D. J. et al., J. Immunol., 153:517-528 (1994); Shyjan et al., Journal of Immunology, 1996:2851 (1996) were fluorescently labeled (labeling protocol provided below) using BCECF (Molecular probes #B-1170). Cells were resuspended in an assay buffer consisting of Hanks Balanced Salt Solution (HBSS) supplemented with fetal calf serum (FCS) at a final concentration of 2%, HEPES, pH 7.3 at 25 mM. All reagents in this buffer were supplied from Gibco/BRL.
All assays were performed in 96 well strip well plates from Costar (E.I.A./R.I.A. Strip plate-8 Cat. #2581). […] The plates were incubated at 37° C. for one hour (or at 4° C. overnight) and washed once in the automatic plate washer (50 mM Tris HCl, 0.14 M NaCl and 2.0 mM MnCl2 at pH 7.2) (Bio-Tek EL 404 microplate autowasher). Wells were then blocked with PBS (phosphate buffered saline) and 10% FCS (100 μl/well) for one hour at 37° C. followed by the same wash step as described.
Cells were labeled with BCECF-AM (Molecular Probes, Cat. No. B-1170) at a concentration of 2 μl/ml to a cell suspension of 4×10^6 cells/ml in PBS. The cells were incubated in a 37° C. water bath for 30 minutes. Labeled cells were centrifuged at 700 RPM for 10 minutes, resuspended in assay buffer and the centrifugation step was repeated. The cells were resuspended at a final concentration of 2.5×10^6 cells/ml.
For assays, compounds were diluted as follows in a 96 well polypropylene plate. First, a stock solution of each compound was prepared by dissolving compound in 100% DMSO at 100X final concentration to be tested. 10 μl of the stock was added to 90 μl water for the first test dilution. 50 μl of the first test dilution was added to 50 μl of 10% DMSO in water for the second test dilution. 50 μl of the second test dilution was added to 50 μl of 10% DMSO in water for the third test dilution. 50 μof the third test dilution was added to 50 μl of 10% DMSO in water for the fourth test dilution, and so on, until six test dilutions were prepared.
A stock solution of SmM positive control peptide (L783-1A) was made in 100% DMSO, and subsequently diluted in water 1:10 (10 μl of 5 mM stock plus 90 μl of water) to yield a concentration of 0.5mM. This dilution was then further diluted 1:2 with 10% DMSO (50 μl of the compound and 50 μl of 10% DMSO) for a concentration of 250 μM. These 1:2 dilutions were continued serially until six dilutions were achieved. These dilutions represent 10X stocks as shown in the assay set up below:
The assay was set up by adding materials to huMAdCAM-1-Ig-coated plates as follows:
1) 130 μl/well of assay buffer
2) 20 μl/well of diluted compounds or 10% DMSO (control) or diluted positive control peptide.
3) 50 μl of ECECF-AM-labeled RPMI 8866 cells
The plates were wrapped in foil and incubated for 30 minutes at room temperature on a rotary shaker at 45 RPM.
Plates were washed twice (50 mM Tris HCl, […] and 2.0 mM MnCl2 at pH 7.2) on the microplate autowasher plate washer set as follows:
Plates were read in an IDEX fluoresecent plate reader set to excite at 485 nm and read at 535 nm.
Data was collected in microsoft excel in a format for automatic IC 50 determinations.

Point of comparison: `Cc1nc(Cl)ccc1C(=O)N[C@@H](CC(C)C)C(=O)N[C@@H](CC(=O)O)C(=O)N[C@H](C(N)=O)[C@@H](C)O` [Table 6 example 9], IC50 1100 nM. Against it:
- CCCCCCOc1ccc(C(=O)N[C@@H](CC(C)C)C(=O)N[C@@H](CC(=O)O)C(=O)N[C@H](C(N)=O)[C@@H](C)O)cc1 [Table 6 example 1] — 1.9-fold lower, 580 nM
- CC(C)C[C@H](NC(=O)c1coc2ccccc2c1=O)C(=O)N[C@@H](CC(=O)O)C(=O)N[C@H](C(N)=O)[C@@H](C)O [Table 6 example 2] — 1.5-fold lower, 730 nM
- CC(C)C[C@H](NC(=O)c1cccc(Cl)c1)C(=O)N[C@@H](CC(=O)O)C(=O)N[C@H](C(N)=O)[C@@H](C)O [Table 6 example 3] — within 1.5-fold, 1400 nM
- CC(C)C[C@H](NC(=O)c1ccc(C(C)(C)C)cc1)C(=O)N[C@@H](CC(=O)O)C(=O)N[C@H](C(N)=O)[C@@H](C)O [Table 6 example 4] — the same, 1100 nM
- CC(C)C[C@H](NC(=O)c1sccc1Br)C(=O)N[C@@H](CC(=O)O)C(=O)N[C@H](C(N)=O)[C@@H](C)O [Table 6 example 6] — 2.4-fold higher, 2600 nM
- CC(C)C[C@H](NC(=O)c1cccc(C(F)(F)F)c1)C(=O)N[C@@H](CC(=O)O)C(=O)N[C@H](C(N)=O)[C@@H](C)O [Table 6 example 7] — 2.5-fold higher, 2800 nM
- CC(C)C[C@H](NC(=O)c1cccc(F)c1F)C(=O)N[C@@H](CC(=O)O)C(=O)N[C@H](C(N)=O)[C@@H](C)O [Table 6 example 8] — 1.8-fold higher, 2000 nM

Same assay, conditions: Table 7, R1-Leu-Asp-Thr-R2, read-out: hMAdCAM IC50

Point of comparison: `CC(C)C[C@H](NC(=O)c1cc2ccccc2cn1)C(=O)N[C@@H](CC(=O)O)C(=O)N[C@H](C(=O)NC1CC1)[C@@H](C)O` [Table 7 example 7], IC50 3800 nM. Against it:
- CC(C)C[C@H](NC(=O)c1cc2ccccc2cn1)C(=O)N[C@@H](CC(=O)O)C(=O)N[C@H](C(=O)N1CCc2ccccc2C1)[C@@H](C)O [Table 7 example 1] — 4.9-fold lower, 780 nM
- CC(C)C[C@H](NC(=O)c1cc2ccccc2cn1)C(=O)N[C@@H](CC(=O)O)C(=O)N[C@H](C(=O)N1CCC(C)OC1C)[C@@H](C)O (stereo partly shown) [Table 7 example 3] — 3.9-fold lower, 970 nM
- CC(C)C[C@H](NC(=O)c1cc2ccccc2cn1)C(=O)N[C@@H](CC(=O)O)C(=O)N[C@H](C(=O)NCCC1=CCCCC1)[C@@H](C)O [Table 7 example 4] — 5.9-fold lower, 640 nM
- Cc1cccc(CNC(=O)[C@@H](NC(=O)[C@H](CC(=O)O)NC(=O)[C@H](CC(C)C)NC(=O)c2cc3ccccc3cn2)[C@@H](C)O)c1 [Table 7 example 5] — 4.7-fold lower, 810 nM
- CC(C)C[C@H](NC(=O)c1cc2ccccc2cn1)C(=O)N[C@@H](CC(=O)O)C(=O)N[C@H](C(=O)N[C@@H](C)c1cccc2ccccc12)[C@@H](C)O [Table 7 example 6] — 3.9-fold lower, 970 nM
- CC(C)C[C@H](NC(=O)c1cc2ccccc2cn1)C(=O)N[C@@H](CC(=O)O)C(=O)N[C@H](C(=O)NC1CCCCCCC1)[C@@H](C)O [Table 7 example 8] — 2.9-fold lower, 1300 nM
- CC(C)C[C@H](NC(=O)c1cc2ccccc2cn1)C(=O)N[C@@H](CC(=O)O)C(=O)N[C@H](C(=O)NCCO)[C@@H](C)O [Table 7 example 9] — 2.5-fold lower, 1500 nM
- CC(C)C[C@H](NC(=O)c1cc2ccccc2o1)C(=O)N[C@@H](CC(=O)O)C(=O)N[C@H](C(=O)NC1CCc2ccccc21)[C@@H](C)O (stereo partly shown) [Table 7 example 10] — 2.5-fold lower, 1500 nM

Same assay, conditions: read-out: hMAdCAM IC50, Table 7, R1-Leu-Asp-Thr-R2

For `CC(C)C[C@H](NC(=O)c1cc2ccccc2cn1)C(=O)N[C@@H](CC(=O)O)C(=O)N[C@H](C(=O)N1CCC(=O)CC1)[C@@H](C)O` [Table 7 example 2], the IC50 was 940 nM.
